Data as given in patent US20260008818A1, “CYCLIC PEPTIDE OR SALT THEREOF, AND USES THEREOF” (FUJIFILM Corporation, priority 2023, published 2026).
Bridge positions count the residues as written; N and C are the ends. Ends that are not written are not given here. COCH2 = acetyl group that carries the bridge

Test system: Recombinant Human FGFR1 alpha (IIIc) Fc Chimera Protein
Experiment: Binding affinity of enzymatically synthesized cyclic peptide to FGFR by ELISA
Conditions: luminescence signal at reaction concentration 10 nmol/L, SEQ ID NO: 39 standardized to 1, enzyme synthesis product
Protocol: The binding affinity of the cyclic peptide to FGFR was evaluated using an ELISA method.
The binding affinity of the enzymatically synthesized cyclic peptide to FGFR was measured by evaluating the amount of the cyclic peptide bound to FGFR by ELISA.
First, 5 ng of Recombinant Human FGFR1 alpha (IIIc) Fc Chimera Protein CF (R&D systems, 658-FR-050) was immobilized in each well of a 96-well plate, and blocked with Pierce Protein-Free (PBS) Blocking Buffer (Thermo, 37572), and a cyclic peptide diluted with Can Get Signal Immunoreaction Enhancer Solution I (TOYOBO, NKB-101) was then added and reacted at room temperature for 3 hours. After washing with 0.05% Tween 20-containing phosphate buffered saline (PBS), an anti-Myc antibody (Cell Signaling, 14038S) diluted with Can Get Signal Immunoreaction Enhancer Solution II (TOYOBO, NKB-101) was added and reacted at room temperature for 2 hours. After washing with 0.05% Tween 20-containing PBS, SuperSignal ELISA Femto Substrate (Thermo, 37075) was added, and the luminescence amount was measured. The dose-response relationship was calculated from using the difference between the luminescence amount in the well in which FGFR was immobilized and the luminescence amount in the well in which FGFR was not immobilized, and the concentration of the cyclic peptide at the time of reaction, and the binding affinity to FGFR was evaluated according to the following evaluation criteria. The evaluation result preferably satisfies the evaluation criteria A, B, or C.
In a case where a value of a luminescence signal emitted by the cyclic peptide set forth in SEQ ID NO: 39 at a reaction concentration of 10 nmol/L is standardized to 1, evaluation criteria of the luminescence signal value emitted by the cyclic peptide at a reaction concentration of 10 nmol/L is as follows. • A: 0.7 or more • B: 0.5 or more and less than 0.7 • C: 0.1 or more and less than 0.5 • D: less than 0.1.

Substance	Evaluation result of binding affinity to FGFR
34 (CRALLRGAPFHLAEC; disulfide 1-15) [compound 34]	D (less than 0.1)
35 (CDRTLLYYRLSC; disulfide 1-12 (inferred)) [compound 35]	D (less than 0.1)
36 (CRALLRGAPFHLAEK(COCH2); thioether 1-15; not fully specified; printed as (C)-RALLRGAPFHLAE-(K(acetyl))) [compound 36]	D (less than 0.1)
37 (CDRTLLYYRLSK(COCH2); thioether 1-12; not fully specified; printed as (C)-DRTLLYYRLS-(K(acetyl))) [compound 37]	D (less than 0.1)
38 (WCQLVWQGHKAPYLTLK(COCH2)L; thioether 2-17) [compound 38]	B (0.5 or more and less than 0.7)
39 (HCSYERLQFHGHEAPFRVKV; also: cyclic peptide, ring not given here) [compound 39]	A (0.7 or more)
40 (QCDVWYWLGHRVPFHPVK(COCH2)V; thioether 2-18 (inferred)) [compound 40]	B (0.5 or more and less than 0.7)
41 (TCFVQLWFVDKPAPFLVK(COCH2)T; thioether 2-18 (inferred)) [compound 41]	B (0.5 or more and less than 0.7)
42 (RCWDQLTFYGHQAPFYVK(COCH2)G; thioether 2-18 (inferred)) [compound 42]	A (0.7 or more)
43 (SCWQQLVWFQFEAPFLVK(COCH2)V; thioether 2-18 (inferred)) [compound 43]	C (0.1 or more and less than 0.5)
44 (FCPHIFLGHNAPFLVQK(COCH2)V; thioether 2-17 (inferred)) [compound 44]	A (0.7 or more)
45 (YCFQKLEFFGHLAPFLFK(COCH2)S; thioether 2-18 (inferred)) [compound 45]	B (0.5 or more and less than 0.7)
46 (ACWVQYLWHGHAAPFLIK(COCH2)S; thioether 2-18 (inferred)) [compound 46]	C (0.1 or more and less than 0.5)
47 (SCWTQLQWQAHLAPFWTK(COCH2)V; thioether 2-18 (inferred)) [compound 47]	C (0.1 or more and less than 0.5)
48 (HCKVQQLWLQGHYAPYWVK(COCH2)S; thioether 2-19 (inferred)) [compound 48]	C (0.1 or more and less than 0.5)
49 (HCEWTQLIYYGFSAPYIVK(COCH2)R; thioether 2-19 (inferred)) [compound 49]	C (0.1 or more and less than 0.5)
50 (WCRLKLLGHDAPFIK(COCH2)W; thioether 2-15 (inferred)) [compound 50]	B (0.5 or more and less than 0.7)
51 (KCWQQLSFVGHIAPFVYK(COCH2)Y; thioether 2-18 (inferred)) [compound 51]	B (0.5 or more and less than 0.7)
52 (SCYERVVLFGWQAPYWAK(COCH2)P; thioether 2-18 (inferred)) [compound 52]	B (0.5 or more and less than 0.7)
53 (SCWYQPEWLGHHLPYLVK(COCH2)W; thioether 2-18 (inferred)) [compound 53]	C (0.1 or more and less than 0.5)
54 (HCYERLQFHGHEAPFRVK(COCH2)V; thioether 2-18 (inferred)) [compound 54]	A (0.7 or more)
55 (HCASYERLQFHGHEAPFRVK(COCH2)V; thioether 2-20 (inferred)) [compound 55]	C (0.1 or more and less than 0.5)
56 (ACSYERLQFHGHEAPFRVK(COCH2)V; thioether 2-19 (inferred)) [compound 56]	A (0.7 or more)
57 (HCAYERLQFHGHEAPFRVK(COCH2)V; thioether 2-19 (inferred)) [compound 57]	A (0.7 or more)
58 (HCSYARLQFHGHEAPFRVK(COCH2)V; thioether 2-19 (inferred)) [compound 58]	B (0.5 or more and less than 0.7)
59 (HCSYEALQFHGHEAPFRVK(COCH2)V; thioether 2-19 (inferred)) [compound 59]	C (0.1 or more and less than 0.5)
60 (HCSYERLAFHGHEAPFRVK(COCH2)V; thioether 2-19 (inferred)) [compound 60]	B (0.5 or more and less than 0.7)
61 (HCSYERLQFAGHEAPFRVK(COCH2)V; thioether 2-19 (inferred)) [compound 61]	A (0.7 or more)

Next, values leading:

Evaluation result of binding affinity to FGFR	Substance
A (0.7 or more)	62 (HCSYERLQFHGHAAPFRVK(COCH2)V; thioether 2-19 (inferred)) [compound 62]
C (0.1 or more and less than 0.5)	63 (HCSYERLQFHGHEAAFRVK(COCH2)V; thioether 2-19 (inferred)) [compound 63]
B (0.5 or more and less than 0.7)	64 (HCSYERLQFHGHEAPFAVK(COCH2)V; thioether 2-19 (inferred)) [compound 64]
A (0.7 or more)	65 (HCSYERLQFHGHEAPFRAK(COCH2)V; thioether 2-19 (inferred)) [compound 65]
A (0.7 or more)	66 (HCSYERLQFHGHEAPFRVK(COCH2)A; thioether 2-19 (inferred)) [compound 66]
A (0.7 or more)	67 (GCSYERLQFHGHEAPFRVK(COCH2)V; thioether 2-19 (inferred)) [compound 67]
A (0.7 or more)	68 (PCSYERLQFHGHEAPFRVK(COCH2)V; thioether 2-19 (inferred)) [compound 68]
A (0.7 or more)	69 (LCSYERLQFHGHEAPFRVK(COCH2)V; thioether 2-19 (inferred)) [compound 69]
A (0.7 or more)	70 (ICSYERLQFHGHEAPFRVK(COCH2)V; thioether 2-19 (inferred)) [compound 70]
A (0.7 or more)	71 (VCSYERLQFHGHEAPFRVK(COCH2)V; thioether 2-19 (inferred)) [compound 71]
A (0.7 or more)	72 (FCSYERLQFHGHEAPFRVK(COCH2)V; thioether 2-19 (inferred)) [compound 72]
A (0.7 or more)	73 (YCSYERLQFHGHEAPFRVK(COCH2)V; thioether 2-19 (inferred)) [compound 73]
A (0.7 or more)	74 (WCSYERLQFHGHEAPFRVK(COCH2)V; thioether 2-19 (inferred)) [compound 74]
A (0.7 or more)	75 (NCSYERLQFHGHEAPFRVK(COCH2)V; thioether 2-19 (inferred)) [compound 75]
A (0.7 or more)	76 (QCSYERLQFHGHEAPFRVK(COCH2)V; thioether 2-19 (inferred)) [compound 76]
